Assays:
PPARδ = target: T1, PPARδ (Homo sapiens, UniProt Q03181); conditions: method described in Example 12 of WO 2003/033493; cited from earlier work
T1 sequence (Q03181 1-441): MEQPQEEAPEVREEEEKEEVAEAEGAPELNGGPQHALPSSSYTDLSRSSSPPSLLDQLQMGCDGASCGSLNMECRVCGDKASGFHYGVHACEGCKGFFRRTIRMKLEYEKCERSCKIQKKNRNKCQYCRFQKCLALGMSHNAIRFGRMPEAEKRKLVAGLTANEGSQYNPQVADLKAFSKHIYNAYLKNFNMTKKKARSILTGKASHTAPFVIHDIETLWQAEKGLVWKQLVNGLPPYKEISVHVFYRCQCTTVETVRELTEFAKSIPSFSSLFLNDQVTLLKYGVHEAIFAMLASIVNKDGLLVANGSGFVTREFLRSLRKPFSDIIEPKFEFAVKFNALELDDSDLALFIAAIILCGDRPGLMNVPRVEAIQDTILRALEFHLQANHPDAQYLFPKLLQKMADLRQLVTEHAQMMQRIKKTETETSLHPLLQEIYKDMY

[1] = tested on: corneal sensitivity of rabbit cornea after corneal flap production; test: Decrease of corneal sensitivity after corneal flap production in rabbit (Cochet-Bonnet corneal esthesiometer); format: in vivo, Japanese white rabbit; conditions: 0.005% ophthalmic solution, 50 μL instillation 4 times per day for 17 days, compared with vehicle ophthalmic solution, FIG. 2 and FIG. 3
Procedure: Male Japanese white rabbits (body weight 2.80-3.32 kg) purchased from KITAYAMA LABES Co., Ltd. were used. The animals were bred in a breeding room set to room temperature 23° C.±3° C., humidity 55%±10% RH, 12 hr lighting (08:00 lighting, 20:00 lights-out) from the arrival to the test end date. A solid feed (Labo R Stock, Nosan Corporation, 100-120 g/day) was given to the animals, and the animals were allowed to freely ingest tap water, passed through a sterilizer for animal drink, from an automatic-water supply apparatus. The test was performed on an approval from the animal care and use committee based on the Act on Welfare and Management of Animals (Act No. 105 of Oct. 1, 1973, final revision: Act No. 38 of Jun. 12, 2013) and the like.
As a test substance, [3-[2-[4-isopropyl-2-(4-trifluoromethyl)phenyl-5-thiazolyl]ethyl]-5-methyl-1,2-benzisoxazol-6-yl]oxyacetic acid (hereinafter to be referred to as compound A) was used. […]
Before production of corneal flap, the anterior ocular segment of the rabbits was macroscopically observed, and the rabbits showing no abnormality were selected. Then, using Cochet-Bonnet corneal esthesiometer (manufactured by LUNEAU), the corneal sensitivity at measurement locations 1 and 2 in FIG. 1 was measured, and the rabbits showing a corneal sensitivity threshold of not less than 15 mm at both measurement locations 1 and 2 were selected. […]

[2] = tested on: corneal epithelial disorder in GK rats; test: Corneal epithelial disorder in spontaneously diabetic Goto-Kakizaki (GK) rat, fluorescein staining score; format: in vivo
Procedure: Male GK rats (20 rats) (Wakuta M., et al., Invest. Ophthalmol. Vis. Sci. 2007 48 590-596) purchased from CLEA Japan, Inc. were used. Corneal epithelial disorders associated with neuropathy were found in GK rats (Wang F., et al., Am J Pathol. 2012 181 2058-2066). GK rats are originated from Wistar rats and therefore, Wistar rats were used as normal control group (7 rats). The animals were bred in a breeding room set to room temperature 23° C.±3° C., humidity 55%±10% RH, 12 hr lighting (08:00 lighting, 20:00 lights-out) from the arrival to the test end date. The animals were allowed to freely ingest a solid feed (Labo MR Stock, Nosan Corporation) and freely ingest tap water, passed through a sterilizer for animal drink, from an automatic-water supply apparatus. The test was performed on an approval from the animal care and use committee based on the Act on Welfare and Management of Animals (Act No. 105 of Oct. 1, 1973, final revision: Act No. 38 of Jun. 12, 2013) and the like.
As a test substance, compound A was used. Compound A was dissolved in the vehicle (Table 2) to 0.005% and used as an ophthalmic solution. As a control group, a vehicle ophthalmic solution made solely of a vehicle (Table 2) and free of compound A was used.
GK rats were assigned to three groups of compound A ophthalmic solution administration group (4 rats) and non-administration group and vehicle ophthalmic solution administration group (8 for each group) using a statistical analysis software (SAS clinical package ver. 5.0, SAS Institute Japan), such that mean blood glucose concentration and mean corneal epithelial disorder score measured before instillation administration were uniform.
Compound A ophthalmic solution or vehicle ophthalmic solution was administered by instillation for 14 days. Instillation administration was performed 4 times per day at 10 μL/administration to both eyes with a micropipette. The administration was not performed on the non-administration group and Wistar rats.
0.1% Sodium fluoresceinate (Wako Pure Chemical Industries, Ltd.) (5 μL) was administered by instillation and fluorescein staining of the corneal epithelium was observed using a slit lamp, whereby the degree of corneal epithelial disorder was determined. To show the degree of abnormal findings in detail, one item was added to the diagnostic criteria of the McDonald-Shadduck method and used as the diagnostic criteria of the test (Table 3). The corneal epithelial disorder was scored for each of the three (upper, middle and lower) regions and the scores of the 3 regions were added up together. The corneal epithelial disorder was observed 2, 4, 6, 8, 11 and 15 days after the instillation administration.

## Cc1cc2c(CCc3sc(-c4ccc(C(F)(F)F)cc4)nc3C(C)C)noc2cc1OCC(=O)O [compound A, [3-[2-[4-isopropyl-2-(4-trifluoromethyl)phenyl-5-thiazolyl]ethyl]-5-methyl-1,2-benzisoxazol-6-yl]oxyacetic acid]
PPARδ
  PPARδ agonist activity: confirmed to have a PPARδ agonist activity
[1]
  recovery of corneal sensitivity at measurement locations 1 and 2 after corneal flap production: recovered faster
[2]; 0.005% ophthalmic solution for 14 days, compared with non-administration and vehicle groups
  corneal epithelial disorder, result in words: improved
[2]; 8 days after administration, 0.005% ophthalmic solution, 10 μL 4 times per day, both eyes
  corneal epithelial disorder score (sum of 3 regions): 4.06 ± 0.20
[2]; 11 days after administration, 0.005% ophthalmic solution, 10 μL 4 times per day, both eyes
  corneal epithelial disorder score (sum of 3 regions): 4.00 ± 0.13
[2]; 15 days after administration, 0.005% ophthalmic solution, 10 μL 4 times per day, both eyes
  corneal epithelial disorder score (sum of 3 regions): 4.00 ± 0.13
[2]; before administration (baseline), mean ± spread
  corneal epithelial disorder score (sum of 3 regions): 4.63 ± 0.33

Source: US20180177766A1, “THERAPEUTIC AGENT FOR NEUROTROPHIC KERATOPATHY” (SENJU PHARMACEUTICAL CO., LTD., priority 2015, published 2018)
